Source: the supplement of paper PMC10307832

Assays:
Assay in all cases: relative viability (nuclei count vs DMSO), 5 days (fraction); higher = more cells survive
Avagacestat + Trametinib = compound: NC(=O)[C@@H](CCC(F)(F)F)N(Cc1ccc(-c2ncon2)cc1F)S(=O)(=O)c1ccc(Cl)cc1 [Avagacestat] + CC(=O)Nc1cccc(-n2c(=O)n(C3CC3)c(=O)c3c(Nc4ccc(I)cc4F)n(C)c(=O)c(C)c32)c1 [Trametinib] (partner 0.02 µM)
Outline: (§1)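 Lung cancer cell lines in 1536-well plates were dosed by pin tool the day after seeding, either with one drug alone or with a fixed anchor-drug dose plus five library-drug doses (not always all listed) in √10 steps. After 5 days, cells were fixed and their nuclei stained in one step (final 0.05% Triton X-100, 1% formaldehyde, 1 ug/ml Hoechst), then counted on 4× images. Relative viability is the nuclei count in treated wells divided by that in vehicle wells. Values are medians of duplicate plates.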

Avagacestat + Lapatinib = compound: NC(=O)[C@@H](CCC(F)(F)F)N(Cc1ccc(-c2ncon2)cc1F)S(=O)(=O)c1ccc(Cl)cc1 [Avagacestat] + CS(=O)(=O)CCNCc1ccc(-c2ccc3ncnc(Nc4ccc(OCc5cccc(F)c5)c(Cl)c4)c3c2)o1 [Lapatinib] (partner 2 µM)
Outline: as §1

Avagacestat + Phenformin = compound: NC(=O)[C@@H](CCC(F)(F)F)N(Cc1ccc(-c2ncon2)cc1F)S(=O)(=O)c1ccc(Cl)cc1 [Avagacestat] + N=C(N)NC(=N)NCCc1ccccc1 [Phenformin] (partner 250 µM)
Outline: as §1

Avagacestat + Olaparib = compound: NC(=O)[C@@H](CCC(F)(F)F)N(Cc1ccc(-c2ncon2)cc1F)S(=O)(=O)c1ccc(Cl)cc1 [Avagacestat] + O=C(c1cc(Cc2n[nH]c(=O)c3ccccc23)ccc1F)N1CCN(C(=O)C2CC2)CC1 [Olaparib] (partner 8 µM)
Outline: as §1

| Cell Line | relative viability (Avagacestat + Trametinib; first compound 0.08 µM) | relative viability (Avagacestat + Trametinib; first compound 0.253 µM) | relative viability (Avagacestat + Trametinib; first compound 0.8 µM) | relative viability (Avagacestat + Trametinib; first compound 2.53 µM) | relative viability (Avagacestat + Trametinib; first compound 8 µM) | relative viability (Avagacestat + Lapatinib; first compound 0.08 µM) | relative viability (Avagacestat + Lapatinib; first compound 0.253 µM) | relative viability (Avagacestat + Lapatinib; first compound 0.8 µM) | relative viability (Avagacestat + Lapatinib; first compound 2.53 µM) | relative viability (Avagacestat + Lapatinib; first compound 8 µM) | relative viability (Avagacestat + Phenformin; first compound 0.08 µM) | relative viability (Avagacestat + Phenformin; first compound 0.253 µM) | relative viability (Avagacestat + Phenformin; first compound 0.8 µM) | relative viability (Avagacestat + Phenformin; first compound 2.53 µM) | relative viability (Avagacestat + Phenformin; first compound 8 µM) | relative viability (Avagacestat + Olaparib; first compound 0.08 µM) | relative viability (Avagacestat + Olaparib; first compound 0.253 µM) | relative viability (Avagacestat + Olaparib; first compound 0.8 µM) | relative viability (Avagacestat + Olaparib; first compound 2.53 µM) | relative viability (Avagacestat + Olaparib; first compound 8 µM) |
| --- | --- | --- | --- | --- | --- | --- | --- | --- | --- | --- | --- | --- | --- | --- | --- | --- | --- | --- | --- | --- |
| HCC-827 | 0.602 | 0.509 | 0.543 | 0.531 | 0.507 | 0.197 | 0.178 | 0.177 | 0.169 | 0.191 | 0.478 | 0.397 | 0.509 | 0.405 | 0.35 | 0.724 | 0.734 | 0.687 | 0.607 | 0.656 |
| NCI-H2087 | 0.211 | 0.223 | 0.196 | 0.183 | 0.198 | 1.33 | 1.04 | 1.05 | 1.25 | 1.06 | 0.535 | 0.561 | 0.548 | 0.467 | 0.441 | 0.806 | 0.613 | 0.884 | 0.62 | 0.543 |
| RERF-LC-KJ | 0.917 | 0.853 | 0.89 | 0.81 | 0.84 | 1.12 | 0.887 | 0.871 | 0.889 | 0.751 | 0.435 | 0.495 | 0.412 | 0.431 | 0.367 | 1.07 | 1.12 | 1.06 | 1 | 0.978 |
| NCI-H2342 | 0.725 | 0.771 | 0.784 | 0.766 | 0.693 | – | – | – | – | – | 0.634 | 0.53 | 0.629 | 0.59 | 0.588 | 0.441 | 0.384 | 0.486 | 0.458 | 0.451 |
| A-427 | 0.84 | 0.898 | 0.71 | 0.694 | 0.742 | 1.03 | 1.28 | 1.12 | 1.07 | 1.06 | 0.312 | 0.27 | 0.312 | 0.268 | 0.296 | 0.832 | 0.778 | 0.83 | 0.684 | 0.751 |
| H3255 | 0.673 | 0.644 | 0.777 | 0.569 | 0.589 | 0.262 | 0.259 | 0.3 | 0.244 | 0.276 | 0.357 | 0.352 | 0.326 | 0.353 | 0.431 | 0.626 | 0.663 | 0.609 | 0.621 | 0.572 |
| HCC-78 | 0.878 | 0.933 | 0.888 | 0.789 | 0.726 | 0.556 | 0.696 | 1.48 | 0.7 | 0.579 | 0.71 | 0.763 | 0.811 | 0.66 | 0.724 | 0.786 | 0.948 | 0.632 | 0.67 | 0.712 |
| NCI-H1755 | 0.837 | 0.884 | 0.8 | 0.777 | 0.729 | 1.05 | 1.29 | 1.22 | 1.04 | 1.02 | 0.714 | 0.652 | 0.655 | 0.623 | 0.577 | 0.894 | 0.957 | 0.901 | 0.914 | 0.884 |
| NCI-H23 | 0.43 | 0.261 | 0.392 | 0.414 | 0.4 | 1.61 | 1.29 | 1.17 | 1.05 | 1.32 | 0.941 | 0.86 | 0.761 | 0.859 | 0.851 | 0.302 | 0.316 | 0.315 | 0.335 | 0.296 |
| ABC-1 | – | – | – | – | – | 1.23 | 1.32 | 1.14 | 0.497 | 1.15 | 0.232 | 0.228 | 0.221 | 0.25 | 0.263 | 0.904 | 0.512 | 0.836 | 0.776 | 0.757 |
| COR-L23 | 0.765 | 0.741 | 0.818 | 0.632 | 0.414 | 1.26 | 1.1 | 1.3 | 0.95 | 0.4 | 0.463 | 0.444 | 0.423 | 0.435 | 0.359 | 0.326 | 0.3 | 0.339 | 0.308 | 0.284 |
| NCI-H838 | 0.534 | 0.607 | 0.559 | 0.442 | 0.495 | 1.5 | 1.04 | 1.13 | 0.865 | 0.835 | 0.622 | 0.537 | 0.598 | 0.509 | 0.484 | 1.08 | 0.87 | 0.881 | 0.805 | 0.575 |
| NCI-H2009 | 0.267 | 0.245 | 0.283 | 0.252 | 0.251 | 0.963 | 0.995 | 0.857 | 0.993 | 0.814 | 0.562 | 0.595 | 0.514 | 0.491 | 0.455 | 0.718 | 0.73 | 0.779 | 0.667 | 0.66 |
| NCI-H1563 | – | – | – | – | – | 0.959 | 0.806 | 0.951 | 0.828 | 0.925 | 0.665 | 0.669 | 0.746 | 0.646 | 0.658 | – | – | – | – | – |
| NCI-H460 | 0.223 | 0.143 | 0.13 | 0.112 | 0.1 | 1.16 | 1.49 | 1.58 | 0.916 | 0.726 | 0.597 | 0.866 | 0.771 | 0.337 | 0.379 | 0.549 | 0.565 | 0.532 | 0.385 | 0.36 |
| ChaGo-K-1 | 0.95 | 0.933 | 0.897 | 0.817 | 0.797 | – | – | – | – | – | 0.599 | 0.53 | 0.511 | 0.49 | 0.514 | 0.431 | 0.435 | 0.394 | 0.437 | 0.394 |
| EBC-1 | – | – | – | – | – | 0.212 | 0.231 | 0.246 | 0.23 | 0.202 | – | – | – | – | – | 0.76 | 0.868 | 0.704 | 0.799 | 0.537 |
| A549 | – | – | – | – | – | 1.58 | 0.977 | 1.09 | 0.939 | 1.11 | 0.276 | 0.218 | 0.181 | 0.226 | 0.538 | 0.465 | 0.301 | 0.622 | 0.265 | 0.34 |
| NCI-H1299 | – | – | – | – | – | 1.03 | 0.984 | 0.988 | 0.924 | 0.926 | – | – | – | – | – | 0.97 | 1.07 | 0.975 | 0.979 | 0.929 |
